These results are taken from publication PMC7966384, “In vivo and in vitro reconstitution of unique key steps in cystobactamid antibiotic biosynthesis” (Nature Communications, 2021).

The target in test [1] is T1, CysH (Cystobacter sp. Cbv34, UniProt A0A0H4NUD7).
T1 construct: full-length A-T module with 38 kDa AMDH domain inserted; E. coli BL21(DE3), pHisSUMOTEV, N-terminal 6xHis tag, TEV protease treated
Put plainly: intact protein ESI-MS, loading onto T domain. As to conditions: 1 mM ATP, 10 mM MgCl2, pH 7.5, room temperature; covalent (T domain thioester); 1 mM amino acid, 5 µM protein. In kind it is biochemical.

For test [2], the target named is T2, CysH∆AMDH (Cystobacter sp. Cbv34, UniProt A0A0H4NUD7).
T2 construct: E. coli BL21(DE3)
Put plainly: intact protein ESI-MS, loading onto T domain. It is filed as biochemical. The note with it: 1 mM ATP, 10 mM MgCl2, pH 7.5, room temperature; covalent (T domain thioester); 1 mM amino acid, 5 µM protein.

T1 sequence (A0A0H4NUD7 entry or part of it): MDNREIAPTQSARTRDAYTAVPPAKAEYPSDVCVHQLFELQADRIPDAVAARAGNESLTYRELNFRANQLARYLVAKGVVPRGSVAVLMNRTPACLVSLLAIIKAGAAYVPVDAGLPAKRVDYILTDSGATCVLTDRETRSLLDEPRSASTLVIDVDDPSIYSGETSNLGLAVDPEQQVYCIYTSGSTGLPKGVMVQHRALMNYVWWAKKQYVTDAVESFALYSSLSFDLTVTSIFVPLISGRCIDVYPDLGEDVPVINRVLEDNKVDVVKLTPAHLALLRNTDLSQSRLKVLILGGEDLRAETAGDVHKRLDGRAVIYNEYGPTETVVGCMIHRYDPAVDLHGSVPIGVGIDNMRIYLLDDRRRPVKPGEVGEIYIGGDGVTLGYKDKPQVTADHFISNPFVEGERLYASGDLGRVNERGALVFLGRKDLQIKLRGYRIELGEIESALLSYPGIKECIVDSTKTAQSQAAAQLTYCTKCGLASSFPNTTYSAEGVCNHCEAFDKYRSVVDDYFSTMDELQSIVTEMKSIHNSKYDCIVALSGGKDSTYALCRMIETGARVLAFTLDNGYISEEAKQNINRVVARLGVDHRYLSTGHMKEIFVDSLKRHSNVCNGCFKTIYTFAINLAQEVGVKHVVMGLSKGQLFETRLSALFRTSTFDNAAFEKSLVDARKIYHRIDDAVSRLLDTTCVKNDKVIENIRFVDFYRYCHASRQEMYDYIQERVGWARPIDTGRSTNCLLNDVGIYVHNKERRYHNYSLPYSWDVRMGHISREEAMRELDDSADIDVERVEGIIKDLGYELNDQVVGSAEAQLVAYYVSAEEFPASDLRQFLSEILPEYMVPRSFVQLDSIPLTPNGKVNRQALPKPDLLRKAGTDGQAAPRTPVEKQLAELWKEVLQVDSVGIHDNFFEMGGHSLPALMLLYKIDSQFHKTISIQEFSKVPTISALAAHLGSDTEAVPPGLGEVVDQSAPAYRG
T2 sequence (A0A0H4NUD7 entry or part of it): as above

For `NC(=O)C[C@H](N)C(=O)O` [L-asparagine], the “intact protein ESI-MS, loading onto T domain” value in test [1] was “L-asparagine was favored as substrate by CysH”; in test [2], “Incubation of CysH∆AMDH with L-asparagine only resulted in substrate loading”.

Take `NC(=O)[C@@H](N)CC(=O)O` [L-isoasparagine]: in test [1], the “intact protein ESI-MS, loading onto T domain” value is “we also observed loading of L-glutamine, β-cyano-L-alanine, and L-isoasparagine”.
